The results in this text go back to patent publication US10281476B2, “Methods to identify modulators of RyR calcium channels” (REGENTS OF THE UNIVERSITY OF MINNESOTA, priority 2013, dated 2019).

Where no end group is shown, it is not given here.

Assay [1] concerns the target T1, RyR2 (Rattus norvegicus, UniProt B0LPN4). Put plainly: F-DPc10 wash-in and washout kinetics at the myocyte Z-line. The format is binding. Set-up: endogenous in cells; host or cells: saponin-permeabilized adult rat ventricular myocytes. The following applies: for effect on HF647-DPc10 wash-out kinetics: dantrolene 1 μmol/L, NF-DPc10 5 μmol/L. The protocol: To characterize DPc10-binding kinetics at Z-lines, we performed F-DPc10 wash-in (500 nmol/L) and washout experiments in permeabilized myocytes (FIG. 10A). Association (τwash-in=79.0±3.2 minutes) and dissociation (τwashout=149.8±4.4 minutes) were very slow compared with similar FKBP12.6 measurements (Guo et al., Circ Res, 2010; 106:1743-1752). From the wash-in/washout measurements, we calculated the association and dissociation rates constants, kon and koff, respectively, according to the following equation: kwash-in=[F-DPc10]kon+koff where kwashout≈koff and k=1/τ (s^−1). Accordingly, kon=202±20 (L mol^−1 s^−1) and koff=0.11±0.01 (10^−3 s^−1). […] We repeated this kinetic analysis using FRET between FKBP12.6 and DPc10, thus assessing the RyR2-specific DPc10 binding (FIG. 11A AND 11B). […] Based on these kinetic and affinity analyses, we infer that most of the Z-line-specific DPc10 binding is to RyR2. This is also consistent with Bmax, which would imply ≈1 DPc10 per RyR2 monomer.
We were intrigued by the slow kwash-in and conducted measurements to further understand the basis of this slow association. We tested the hypothesis that at resting [Ca^2+]i, DPc10 access to its RyR2 binding site is sterically hindered. If the N-terminal and central domains are tightly zipped to each other, then this interaction may occlude the DPc10-binding site on the RyR2, thus limiting the kon for DPc10. Alternatively, a limiting factor may be the rate at which DPc10 adopts a conformation that can bind to RyR2. To discern between these mechanisms, we determined the effect of [F-DPc10] on τwash-in. If the small fraction of DPc10 in the right conformation limits binding rate, then τwash-in should be faster at higher [F-DPc10], according to Equation. […] Instead, a 10-fold increase in [F-DPc10] had no significant effect on the τwash-in, although it did increase Bmax (FIG. 10B). The same was seen when using FKBP12.6-DPc10 FRET to assess τwash-in with 0.5 vs 5 μmol/L HF647-DPc10 (FIG. 12A AND 12B).
In our working model, under resting conditions, the RyR2 closed state may be stabilized by the interaction between the N-terminal and central domain in the zipped state. We hypothesized that conditions that promote RyR2 opening might enhance the rate of unzipping and accelerate τwash-in for F-DPc10. To test this, we first monitored F-DPc10 wash-in at elevated Ca^2+ (500 nmol/L). However, the 13% faster mean τwash-in was not significant (FIG. 13A). […] Thus, we preincubated myocytes with ryanodine (100 μmol/L) plus caffeine ([…]), which are known to favor long RyR2 openings and were reported to cause RyR2 domain unzipping in HEK293 cells (Liu et al., J Cell Sci, 2010; 123: 1775-1784). Ryanodine+caffeine produced a 21% faster τwash-in (P=0.002; FIG. 13B). However, the most significant effect was seen after presaturating RyR2 with NF-DPc10 (and then NF-DPc10 washout with F-DPc10 present; FIG. 13A). […] Assuming that koff of NF-DPc10 is the same as for F-DPc10 and using Equation, the kon is increased by 3.2-fold by unzipping as a result of prebinding of NF-DPc10 to the RyR2. Our working hypothesis is that the RyR2 open state may increase the probability of an RyR2 shifting to the unzipped state and may allow faster F-DPc10 wash-in. It also seems that the RyR2 open state (favored by caffeine-ryanodine) differs from the unzipped state (bound with DPc10).
Both FKBP12.6 and CaM bind to the RyR2 and can reduce channel opening, which might alter DPc10 binding. […] Neither CaM nor FKBP12.6 pretreatment altered M-line F-DPc10 fluorescence (FIG. 15). […] We infer that CaM stabilizes the domain interaction between N-terminal and central domains in the zipped state and thereby may reduce DPc10 access to its binding site. To test for direct CaM-DPc10 interaction, we performed control FRET measurements between donor-labeled CaM and acceptor-labeled DPc10 in solution in the absence of RyR. The maximal FRET efficiency (<1%) ruled out direct CaM-DPc10 interaction. […]
Target sequence in this assay (B0LPN4 whole entry): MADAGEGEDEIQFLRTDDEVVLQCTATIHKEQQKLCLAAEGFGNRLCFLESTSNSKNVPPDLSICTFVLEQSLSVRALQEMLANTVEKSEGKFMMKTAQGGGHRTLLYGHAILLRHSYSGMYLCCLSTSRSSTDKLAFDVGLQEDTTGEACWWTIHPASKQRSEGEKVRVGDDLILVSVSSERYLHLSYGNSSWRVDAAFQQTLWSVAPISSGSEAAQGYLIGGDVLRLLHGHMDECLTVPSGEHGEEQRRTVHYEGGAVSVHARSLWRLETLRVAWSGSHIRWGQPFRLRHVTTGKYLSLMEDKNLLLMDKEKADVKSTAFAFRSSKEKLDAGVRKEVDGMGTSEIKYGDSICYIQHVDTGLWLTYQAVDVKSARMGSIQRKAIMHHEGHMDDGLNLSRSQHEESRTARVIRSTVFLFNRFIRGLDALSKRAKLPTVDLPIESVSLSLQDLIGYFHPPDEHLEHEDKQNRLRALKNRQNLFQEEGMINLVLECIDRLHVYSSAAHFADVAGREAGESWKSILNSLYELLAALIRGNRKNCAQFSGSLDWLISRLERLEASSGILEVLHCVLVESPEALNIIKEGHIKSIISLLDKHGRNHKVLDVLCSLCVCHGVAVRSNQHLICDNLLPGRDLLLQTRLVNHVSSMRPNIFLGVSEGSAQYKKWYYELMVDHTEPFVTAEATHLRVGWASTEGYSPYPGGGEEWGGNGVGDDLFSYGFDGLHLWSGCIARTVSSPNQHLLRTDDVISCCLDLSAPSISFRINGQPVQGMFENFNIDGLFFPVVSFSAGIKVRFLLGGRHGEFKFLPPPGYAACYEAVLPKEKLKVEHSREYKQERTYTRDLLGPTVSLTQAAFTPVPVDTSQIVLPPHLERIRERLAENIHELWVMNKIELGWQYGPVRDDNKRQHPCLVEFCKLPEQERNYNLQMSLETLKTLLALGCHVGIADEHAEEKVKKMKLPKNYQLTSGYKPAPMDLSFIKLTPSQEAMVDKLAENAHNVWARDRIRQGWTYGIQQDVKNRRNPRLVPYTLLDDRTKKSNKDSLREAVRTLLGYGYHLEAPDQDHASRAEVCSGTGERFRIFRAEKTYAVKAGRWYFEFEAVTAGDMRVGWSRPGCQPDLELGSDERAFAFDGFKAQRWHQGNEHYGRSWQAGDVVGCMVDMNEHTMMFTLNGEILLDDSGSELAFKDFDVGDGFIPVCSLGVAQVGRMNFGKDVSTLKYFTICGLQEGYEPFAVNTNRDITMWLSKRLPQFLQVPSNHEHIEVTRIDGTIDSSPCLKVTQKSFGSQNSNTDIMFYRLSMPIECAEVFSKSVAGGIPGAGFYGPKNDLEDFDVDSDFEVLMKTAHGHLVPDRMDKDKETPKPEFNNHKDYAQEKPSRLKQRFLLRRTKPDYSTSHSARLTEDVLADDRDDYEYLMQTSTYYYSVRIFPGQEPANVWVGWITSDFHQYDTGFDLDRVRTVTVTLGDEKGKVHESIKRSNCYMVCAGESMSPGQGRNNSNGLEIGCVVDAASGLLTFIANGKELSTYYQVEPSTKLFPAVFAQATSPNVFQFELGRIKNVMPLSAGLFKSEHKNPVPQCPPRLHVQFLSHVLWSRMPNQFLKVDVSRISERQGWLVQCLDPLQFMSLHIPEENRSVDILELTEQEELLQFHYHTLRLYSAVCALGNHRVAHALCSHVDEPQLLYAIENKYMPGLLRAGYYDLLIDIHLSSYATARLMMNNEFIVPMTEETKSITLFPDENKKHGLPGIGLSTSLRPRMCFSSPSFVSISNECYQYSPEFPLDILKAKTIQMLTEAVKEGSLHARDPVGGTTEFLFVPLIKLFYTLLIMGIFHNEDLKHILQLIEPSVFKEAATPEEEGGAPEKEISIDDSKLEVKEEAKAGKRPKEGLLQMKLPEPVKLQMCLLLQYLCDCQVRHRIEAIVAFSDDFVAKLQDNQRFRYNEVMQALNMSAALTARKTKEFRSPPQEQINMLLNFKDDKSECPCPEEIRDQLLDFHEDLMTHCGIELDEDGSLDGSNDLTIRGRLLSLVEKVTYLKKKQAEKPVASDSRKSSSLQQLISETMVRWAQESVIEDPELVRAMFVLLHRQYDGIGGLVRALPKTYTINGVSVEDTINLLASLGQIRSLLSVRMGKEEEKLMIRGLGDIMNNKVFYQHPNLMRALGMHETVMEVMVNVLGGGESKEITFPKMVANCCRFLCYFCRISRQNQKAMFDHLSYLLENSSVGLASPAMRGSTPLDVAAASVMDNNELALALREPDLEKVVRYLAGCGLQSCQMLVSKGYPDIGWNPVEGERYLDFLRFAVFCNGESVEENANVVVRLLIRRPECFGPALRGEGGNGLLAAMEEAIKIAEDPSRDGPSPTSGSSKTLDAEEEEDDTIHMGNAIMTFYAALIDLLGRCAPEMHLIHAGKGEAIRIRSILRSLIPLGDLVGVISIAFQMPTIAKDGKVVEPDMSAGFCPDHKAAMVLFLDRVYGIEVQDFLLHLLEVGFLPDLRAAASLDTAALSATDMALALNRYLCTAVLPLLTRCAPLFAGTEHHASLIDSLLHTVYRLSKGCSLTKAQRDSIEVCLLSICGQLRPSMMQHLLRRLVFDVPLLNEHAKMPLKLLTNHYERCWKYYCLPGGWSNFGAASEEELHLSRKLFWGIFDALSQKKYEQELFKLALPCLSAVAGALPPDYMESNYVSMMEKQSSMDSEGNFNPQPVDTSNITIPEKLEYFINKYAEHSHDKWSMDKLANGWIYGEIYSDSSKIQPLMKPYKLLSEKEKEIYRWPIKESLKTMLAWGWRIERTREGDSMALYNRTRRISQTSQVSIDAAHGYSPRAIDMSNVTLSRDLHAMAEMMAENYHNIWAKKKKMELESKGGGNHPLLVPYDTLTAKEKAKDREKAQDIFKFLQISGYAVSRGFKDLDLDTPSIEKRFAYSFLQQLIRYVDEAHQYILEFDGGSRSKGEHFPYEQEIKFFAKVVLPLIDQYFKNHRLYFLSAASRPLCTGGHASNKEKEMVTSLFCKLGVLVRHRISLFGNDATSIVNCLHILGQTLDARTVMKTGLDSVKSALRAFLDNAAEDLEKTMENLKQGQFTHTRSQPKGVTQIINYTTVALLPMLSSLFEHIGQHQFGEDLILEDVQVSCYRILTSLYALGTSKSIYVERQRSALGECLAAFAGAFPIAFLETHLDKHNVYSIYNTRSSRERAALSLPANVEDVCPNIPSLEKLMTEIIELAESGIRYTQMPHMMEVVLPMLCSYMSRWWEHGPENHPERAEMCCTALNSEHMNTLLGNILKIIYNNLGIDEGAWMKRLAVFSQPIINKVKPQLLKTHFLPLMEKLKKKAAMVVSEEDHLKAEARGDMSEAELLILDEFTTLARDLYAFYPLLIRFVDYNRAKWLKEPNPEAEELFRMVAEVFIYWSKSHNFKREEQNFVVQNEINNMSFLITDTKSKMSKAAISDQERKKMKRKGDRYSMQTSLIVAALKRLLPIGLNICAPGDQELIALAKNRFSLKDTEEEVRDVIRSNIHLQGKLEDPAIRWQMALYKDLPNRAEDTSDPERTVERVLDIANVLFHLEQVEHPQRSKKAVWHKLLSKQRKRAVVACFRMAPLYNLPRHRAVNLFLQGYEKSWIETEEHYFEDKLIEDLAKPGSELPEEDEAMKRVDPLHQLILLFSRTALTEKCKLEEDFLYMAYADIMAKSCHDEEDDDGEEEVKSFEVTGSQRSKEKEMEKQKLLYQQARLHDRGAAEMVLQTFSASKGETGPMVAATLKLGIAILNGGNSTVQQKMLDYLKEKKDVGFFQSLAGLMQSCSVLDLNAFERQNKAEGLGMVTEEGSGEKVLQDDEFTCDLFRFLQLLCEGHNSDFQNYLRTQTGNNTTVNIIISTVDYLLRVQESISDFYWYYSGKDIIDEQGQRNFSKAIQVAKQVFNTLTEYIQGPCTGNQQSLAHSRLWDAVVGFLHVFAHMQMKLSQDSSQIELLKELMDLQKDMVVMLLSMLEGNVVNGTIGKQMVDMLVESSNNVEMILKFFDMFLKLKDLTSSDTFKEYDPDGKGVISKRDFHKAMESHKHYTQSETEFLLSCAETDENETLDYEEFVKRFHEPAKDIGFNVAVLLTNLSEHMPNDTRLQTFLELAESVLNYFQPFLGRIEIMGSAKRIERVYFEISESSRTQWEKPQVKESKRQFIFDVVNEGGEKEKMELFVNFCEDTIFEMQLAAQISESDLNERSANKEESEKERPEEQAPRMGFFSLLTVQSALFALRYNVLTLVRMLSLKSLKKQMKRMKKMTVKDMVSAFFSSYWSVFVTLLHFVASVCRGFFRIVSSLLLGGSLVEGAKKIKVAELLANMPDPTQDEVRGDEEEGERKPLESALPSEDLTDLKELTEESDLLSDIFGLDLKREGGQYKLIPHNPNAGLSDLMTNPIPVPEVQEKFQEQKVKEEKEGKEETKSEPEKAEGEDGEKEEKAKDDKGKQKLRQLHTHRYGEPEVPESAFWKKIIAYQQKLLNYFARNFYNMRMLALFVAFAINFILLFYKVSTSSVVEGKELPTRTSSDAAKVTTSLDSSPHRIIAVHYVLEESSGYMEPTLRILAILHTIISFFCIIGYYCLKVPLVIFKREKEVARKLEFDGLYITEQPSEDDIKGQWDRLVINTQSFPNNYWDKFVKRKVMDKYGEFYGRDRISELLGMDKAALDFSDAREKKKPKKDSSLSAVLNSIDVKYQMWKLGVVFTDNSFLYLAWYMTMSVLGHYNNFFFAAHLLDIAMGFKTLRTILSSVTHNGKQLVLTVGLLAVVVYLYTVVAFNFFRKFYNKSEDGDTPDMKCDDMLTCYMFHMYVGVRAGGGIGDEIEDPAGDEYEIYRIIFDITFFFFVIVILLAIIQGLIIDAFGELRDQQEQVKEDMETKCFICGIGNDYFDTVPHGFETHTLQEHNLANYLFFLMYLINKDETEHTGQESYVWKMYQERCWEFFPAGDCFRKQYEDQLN

In assay [2] the target is T1, RyR2. Put plainly: Fluorescent FKBP12.6 binding at the Z-line of permeabilized myocytes. The arrangement: These fluorescent proteins were added to saponin-permeabilized myocytes with or without pre-equilibration with saturating DPc10 concentration; endogenous in cells; host or cells: saponin-permeabilized rat ventricular myocytes. As for the experimental part:
These fluorescent proteins were added to saponin-permeabilized myocytes with or without pre-equilibration with saturating DPc10 concentration. […] We also did this with high [CaM] (500 nmol/L) that saturates RyR2 with CaM under control conditions (without DPc10; FIG. 17C). […] To test whether DPc10 and CaM bind at the same or nearby RyR2 sites, we measured FRET between CaM and DPc10.
FKBP12.6 can bind to and stabilize RyR2 channel gating, but details are controversial (Bers et al., Circ Res. 2012; 110:796-799). We measured the effect of H2O2 on FKBP12.6-RyR2 binding affinity in saponin-permeabilized myocytes using F-FKBP (Yang et al., Circ Res. 2014; 114:295-306; Cornea et al., Proc Natl Acad Sci USA. 2009; 106:6128-6133; Guo et al., Circ Res. 2010; 106:1743-1752; Guo et al., Biophys J. 2011; 101:2170-2177; Cornea et al., J Biol Chem. 2010; 285:19219-19226). […] We used 1 nmol/L F-FKBP (the its Kd) (Guo et al., Circ Res. 2010; 106:1743-1752), because at half-saturation it would be very sensitive to either an increase or decrease in RyR2 binding.
Target sequence in this assay (B0LPN4 whole entry): as above
Target sequence in this assay (P68106 with tags, fused parts or gaps T15C/C23A/C77I partner): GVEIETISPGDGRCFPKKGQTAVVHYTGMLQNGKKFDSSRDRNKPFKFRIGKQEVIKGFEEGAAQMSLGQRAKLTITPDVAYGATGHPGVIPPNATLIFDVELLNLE

“GFCPDHKAAMVLFLDRVYGIEVQDFLLHLLEVGFLP [DPc10]”: the “acceleration of F-DPc10 association, by a factor of” value at RyR2 [1] (after presaturating RyR2 with NF-DPc10, then washout with F-DPc10 present) is “≈ 2”. In addition, the “effect on HF647-DPc10 wash-out kinetics” value at RyR2 [1] was “accelerate”. Further, the “increase of kon of F-DPc10” value on RyR2 [1] (prebinding of NF-DPc10 to RyR2) worked out at 3.2 fold. Further, at RyR2 [1] (pretreatment with NF-DPc10), the “increase in kon of F-DPc10” value is “≈ 320%”. In addition, the “effect on FKBP12.6 binding to RyR2” value on RyR2 [2] (AF488-FKBP12.6 1 nmol/L, preincubation with 5 μmol/L DPc10) is on record as “does not influence”.
As for `OO` [H2O2, hydrogen peroxide], the “effect on F-FKBP binding to the RyR2” value at RyR2 [2] (1 nmol/L F-FKBP, H2O2 50 μmol/L, with or without AIP or dantrolene) is listed as “failed to alter”.
For the compound `O=C1CN(/N=C/c2ccc(-c3ccc([N+](=O)[O-])cc3)o2)C(O)=N1` [dantrolene], at RyR2 [1] (1 μmol/L dantrolene), the “reduction of maximal HF647-DPc10 binding (Bmax)” value is given as 74%. Further, the “effect on HF647-DPc10 wash-out kinetics” value on RyR2 [1] is given as “had no effect”.
